From paper PMC6692352, “DF2726A, a new IL-8 signalling inhibitor, is able to counteract chemotherapy-induced neuropathic pain” (Scientific Reports, 2019)

Key:
[1] = test system: p-ERK1/2; assay: p-ERK1/2 western blotting in F11-derived neurons; type: cell-based; conditions: DF2726A 1 µM + oxaliplatin 20 µM, 24 h
Method: Following neuronal differentiation, neurons were treated for 24 h with DF2726A (1 μM final concentration), oxaliplatin (Sigma-Aldrich; 20 µM final concentration), or the combination of the two molecules.
Control and treated cells were collected and lysed in ice-cold RIPA buffer (PBS pH 7.4 containing 0.5% sodium deoxycolate, 1% Igepal, 0.1% SDS, 5 mM EDTA, 1% protease and phosphatase inhibitor cocktails; Sigma-Aldrich) as described in[22],[33]. Protein lysates (30 μg) were separated on 8–12% SDS-polyacrilamide gel and electroblotted onto polyvinyldifluoride membrane (PVDF; Sigma-Aldrich). Nonspecific binding sites were blocked by 5% non-fat dry milk (Bio-Rad Laboratories, Hercules, CA, USA) in Tris buffered saline (TBS: 20 mM Tris- HCl, pH 7.4, containing 150 mM NaCl) for 30 min at RT. […] The relative densities of immunoreactive bands were determined and normalized HRP-conjugated β-actin, using ImageJ software. […]

[2] = test system: F11 cells; assay: Cell viability assay in F11 neuronal cells; conditions: 24 h, 5–20 µM
[3] = test system: IL-8/CINC1; assay: IL-8/CINC1 immunofluorescence of paw sections of oxaliplatin rats; type: in vivo, male Wistar rats; conditions: 30 mg/kg os, rat paw sections
Method: Animals were sacrificed and a biopsy (3 mm) was taken from pad of the right hind paw. Biopsies were immediately placed in Zamboni’s fixative, where they were left at 4 °C. Tissues were then transferred to 20% sucrose for at least 24 h and used for immunohistochemistry analysis. Specimens were frozen in Optimal Cutting Temperature compound (OCT, Sakura Finetek Inc, CA, USA) and sliced into 20 μm thick serial coronal sections by cryostat AMES LAB-TEK (Westmont, Illinois, USA). […]
Five slices were examined for each animal. For each slide, 4 fields were counted. For quantitative evaluation of IL-8/CINC-1 (the homolog of IL-8 in rat) and […], photomicrographs for each condition were analysed by ImageJ software (National Institutes of Health, Bethesda, MD, USA) as previously described. […] The signal was first measured on the tissue in an area devoid of signal at visual inspection and assumed as background; the threshold was then set at 1.5 times the background and the surface area and mean grey intensity were measured for all areas above the threshold. […]

[4] = test system: Iba-1; assay: Western blot of DRG of oxaliplatin rats, microglia marker Iba-1; type: in vivo, male Wistar rats; conditions: 30 mg/kg os; p < 0.01 vs OXA rats
Method: Animals were sacrificed and dorsal root ganglia (DRG) (L4-L6) were removed and stored at […]. They were homogenized on ice-cold lysis buffer [20 mM Tris–HCl (pH 7.5), 10 mM NaF, 150 mM NaCl, 1% Nonidet P-40, 1 mM phenylmethylsulfonyl fluoride, 1 mM Na3VO4, leupeptin and trypsin inhibitor 10 μg/mL; 20 µl/sample, as previously described.
After 1 h, tissue lysates were obtained by centrifugation at 20,000 g for 15 min at 4 °C. Protein concentrations were estimated by the Bio-Rad protein assay using bovine serum albumin as standard.
DRG lysate proteins (30 μg) were dissolved in Laemmli sample buffer, boiled for 5 min, and separated on SDS-polyacrylamide gel elctrophoresis and transferred onto nitrocellulose membrane (240 mA for 40 min at room temperature). […] The protein bands were scanned and densitometrically analyzed with a model GS-700 imaging densitometer (Bio-Rad Laboratories, Milan, Italy). […]

With `CC(C)(C(=O)O)c1ccc(Nc2nc(C(F)(F)F)cs2)cc1` [DF2726A] the “p-ERK1/2 protein levels, oxaliplatin-treated neurons” value [1] was “comparable to those of control cells”, the Neuronal cell viability [2] was “ineffective in modulating neuronal cell viability” and the “Effect on oxaliplatin-increased IL-8/CINC1 signalling in the dermis” value [3] was “significantly attenuated”. For the same compound, the “Iba-1 expression in DRG of oxaliplatin rats” value [4] was “significantly reduced the expression”.
